Tests used:
Assay in all cases: KINOMEscan competition binding
Conditions in all cases: compound 10.0 µM
ACVR1B (human) = ACVR1B (human) (UniProt P36896)
ADCK4 (human) = ADCK4 (human) (UniProt Q96D53)
AURKB (human) = AURKB (human) (UniProt Q96GD4)
BMPR2 (human) = BMPR2 (human) (UniProt Q13873)
CDK4 CCND3 (human) = CDK4 CCND3 (human) (UniProt P11802+P30281)
CDKL2 (human) = CDKL2 (human) (UniProt Q92772)
CLK3 (human) = CLK3 (human) (UniProt P49761)
CSF1R (human) = CSF1R (human) (UniProt P07333)
DCLK1 (human) = DCLK1 (human) (UniProt O15075)
EPHB3 (human) = EPHB3 (human) (UniProt P54753)
FGFR2 (human) = FGFR2 (human) (UniProt P21802)
FGFR4 (human) = FGFR4 (human) (UniProt P22455)
IKBKB (human) = IKBKB (human) (UniProt O14920)
MAP3K13 (human) = MAP3K13 (human) (UniProt O43283)
MAP3K3 (human) = MAP3K3 (human) (UniProt Q99759)
MAPK6 (human) = MAPK6 (human) (UniProt Q16659)
MAPK7 (human) = MAPK7 (human) (UniProt Q13164)
MERTK (human) = MERTK (human) (UniProt Q12866)
[1] = tested on: MET (human), P08581 [M1250T]
[2] = tested on: MET (human), P08581 [Y1235D]
MST1R (human) = MST1R (human) (UniProt Q04912)
NIM1 (human) = NIM1 (human) (UniProt Q8IY84)
NUAK2 (human) = NUAK2 (human) (UniProt Q9H093)
PAK3 (human) = PAK3 (human) (UniProt O75914)
PAK6 (human) = PAK6 (human) (UniProt Q9NQU5)
PAK7 (human) = PAK7 (human) (UniProt Q9P286)
PRKAA1 (human) = PRKAA1 (human) (UniProt Q13131)
PTK2 (human) = PTK2 (human) (UniProt Q05397)
PTK2B (human) = PTK2B (human) (UniProt Q14289)
PTK6 (human) = PTK6 (human) (UniProt Q13882)
RPS6KA6 KD2 (human) = RPS6KA6 KD2 (human) (UniProt Q9UK32)
STK36 (human) = STK36 (human) (UniProt Q9NRP7)
TEK (human) = TEK (human) (UniProt Q02763)
TIE1 (human) = TIE1 (human) (UniProt P35590)
TSSK1B (human) = TSSK1B (human) (UniProt Q9BXA7)
TXK (human) = TXK (human) (UniProt P42681)
CSNK1A1L (human) = CSNK1A1L (human) (UniProt Q8N752)
CSNK1G3 (human) = CSNK1G3 (human) (UniProt Q9Y6M4)
[3] = tested on: EGFR (human), P00533 [752-759 del]
EPHB4 (human) = EPHB4 (human) (UniProt P54760)
[4] = tested on: PIK3CA (human), P42336 [E542K]

Sequence of CDKL2 (human) (Q92772 whole entry, looked up): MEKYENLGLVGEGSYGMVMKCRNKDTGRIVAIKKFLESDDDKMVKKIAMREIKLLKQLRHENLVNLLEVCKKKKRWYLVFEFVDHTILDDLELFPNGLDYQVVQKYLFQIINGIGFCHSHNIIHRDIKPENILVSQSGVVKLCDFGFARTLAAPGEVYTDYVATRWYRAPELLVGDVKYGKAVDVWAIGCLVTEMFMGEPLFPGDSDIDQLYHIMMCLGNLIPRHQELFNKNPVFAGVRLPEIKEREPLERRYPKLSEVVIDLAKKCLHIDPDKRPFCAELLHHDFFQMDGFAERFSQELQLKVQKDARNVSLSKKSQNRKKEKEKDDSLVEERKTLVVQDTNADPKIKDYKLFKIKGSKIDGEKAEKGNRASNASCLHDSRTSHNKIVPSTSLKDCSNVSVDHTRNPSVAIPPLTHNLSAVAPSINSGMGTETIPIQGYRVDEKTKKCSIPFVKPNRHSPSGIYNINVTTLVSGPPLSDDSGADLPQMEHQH
Sequence of RPS6KA6 KD2 (human) (Q9UK32 whole entry, looked up): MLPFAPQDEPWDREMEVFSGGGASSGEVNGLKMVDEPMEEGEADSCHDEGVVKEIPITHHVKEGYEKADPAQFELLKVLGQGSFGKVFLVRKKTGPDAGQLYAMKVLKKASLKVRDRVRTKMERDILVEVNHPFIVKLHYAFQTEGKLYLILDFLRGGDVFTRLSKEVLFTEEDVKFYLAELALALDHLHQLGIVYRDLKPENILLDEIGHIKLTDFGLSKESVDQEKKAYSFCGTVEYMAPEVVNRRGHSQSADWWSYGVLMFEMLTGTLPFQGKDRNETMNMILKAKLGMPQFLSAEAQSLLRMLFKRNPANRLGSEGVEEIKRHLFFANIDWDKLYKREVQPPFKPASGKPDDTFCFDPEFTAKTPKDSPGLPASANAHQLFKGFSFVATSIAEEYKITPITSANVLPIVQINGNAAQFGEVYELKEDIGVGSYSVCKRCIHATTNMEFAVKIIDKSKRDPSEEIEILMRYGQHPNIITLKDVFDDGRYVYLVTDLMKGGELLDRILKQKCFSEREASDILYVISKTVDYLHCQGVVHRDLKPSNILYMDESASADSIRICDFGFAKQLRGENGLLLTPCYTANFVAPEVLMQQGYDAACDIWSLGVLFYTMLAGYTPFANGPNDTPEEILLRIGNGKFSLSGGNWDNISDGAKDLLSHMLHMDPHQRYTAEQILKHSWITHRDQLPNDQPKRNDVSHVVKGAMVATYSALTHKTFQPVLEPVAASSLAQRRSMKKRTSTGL
Sequence of PAK6 (human) (Q9NQU5 whole entry, looked up): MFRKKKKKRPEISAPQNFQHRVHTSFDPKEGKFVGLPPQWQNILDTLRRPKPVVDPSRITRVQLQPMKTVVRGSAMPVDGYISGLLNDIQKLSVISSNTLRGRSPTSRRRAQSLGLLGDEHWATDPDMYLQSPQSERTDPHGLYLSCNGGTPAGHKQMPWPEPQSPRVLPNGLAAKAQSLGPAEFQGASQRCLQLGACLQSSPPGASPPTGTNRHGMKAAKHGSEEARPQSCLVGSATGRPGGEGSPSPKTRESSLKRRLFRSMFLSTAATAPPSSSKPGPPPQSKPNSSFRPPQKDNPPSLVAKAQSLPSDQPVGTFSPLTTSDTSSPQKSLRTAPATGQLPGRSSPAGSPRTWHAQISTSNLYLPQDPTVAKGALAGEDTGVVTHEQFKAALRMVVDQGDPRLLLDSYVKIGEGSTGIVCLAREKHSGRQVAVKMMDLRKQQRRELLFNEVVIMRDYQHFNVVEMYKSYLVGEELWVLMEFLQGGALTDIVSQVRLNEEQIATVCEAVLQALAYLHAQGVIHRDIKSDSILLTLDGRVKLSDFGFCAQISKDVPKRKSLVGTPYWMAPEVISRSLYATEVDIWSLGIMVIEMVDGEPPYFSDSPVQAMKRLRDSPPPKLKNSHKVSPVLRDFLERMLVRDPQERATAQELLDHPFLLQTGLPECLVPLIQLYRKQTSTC
Sequence of MAPK6 (human) (Q16659 whole entry, looked up): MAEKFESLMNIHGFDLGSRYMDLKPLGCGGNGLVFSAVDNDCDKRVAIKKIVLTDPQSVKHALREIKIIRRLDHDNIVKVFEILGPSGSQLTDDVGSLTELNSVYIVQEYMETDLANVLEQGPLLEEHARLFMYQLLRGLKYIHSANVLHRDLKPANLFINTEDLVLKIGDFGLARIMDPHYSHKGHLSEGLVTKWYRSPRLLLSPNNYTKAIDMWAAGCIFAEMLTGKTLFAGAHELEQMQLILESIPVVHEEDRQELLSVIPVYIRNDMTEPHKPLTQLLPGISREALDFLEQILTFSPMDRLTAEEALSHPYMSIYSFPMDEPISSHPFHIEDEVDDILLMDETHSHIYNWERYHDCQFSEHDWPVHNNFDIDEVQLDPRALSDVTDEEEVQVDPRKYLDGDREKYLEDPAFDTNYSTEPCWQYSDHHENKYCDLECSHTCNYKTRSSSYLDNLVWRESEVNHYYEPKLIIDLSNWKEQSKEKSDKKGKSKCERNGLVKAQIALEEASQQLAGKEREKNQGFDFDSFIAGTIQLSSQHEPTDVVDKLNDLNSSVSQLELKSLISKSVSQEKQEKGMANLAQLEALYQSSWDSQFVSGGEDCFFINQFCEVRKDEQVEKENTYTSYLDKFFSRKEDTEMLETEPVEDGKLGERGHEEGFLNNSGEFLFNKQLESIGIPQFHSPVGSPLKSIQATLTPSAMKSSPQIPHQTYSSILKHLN
Sequence of BMPR2 (human) (Q13873 whole entry, looked up): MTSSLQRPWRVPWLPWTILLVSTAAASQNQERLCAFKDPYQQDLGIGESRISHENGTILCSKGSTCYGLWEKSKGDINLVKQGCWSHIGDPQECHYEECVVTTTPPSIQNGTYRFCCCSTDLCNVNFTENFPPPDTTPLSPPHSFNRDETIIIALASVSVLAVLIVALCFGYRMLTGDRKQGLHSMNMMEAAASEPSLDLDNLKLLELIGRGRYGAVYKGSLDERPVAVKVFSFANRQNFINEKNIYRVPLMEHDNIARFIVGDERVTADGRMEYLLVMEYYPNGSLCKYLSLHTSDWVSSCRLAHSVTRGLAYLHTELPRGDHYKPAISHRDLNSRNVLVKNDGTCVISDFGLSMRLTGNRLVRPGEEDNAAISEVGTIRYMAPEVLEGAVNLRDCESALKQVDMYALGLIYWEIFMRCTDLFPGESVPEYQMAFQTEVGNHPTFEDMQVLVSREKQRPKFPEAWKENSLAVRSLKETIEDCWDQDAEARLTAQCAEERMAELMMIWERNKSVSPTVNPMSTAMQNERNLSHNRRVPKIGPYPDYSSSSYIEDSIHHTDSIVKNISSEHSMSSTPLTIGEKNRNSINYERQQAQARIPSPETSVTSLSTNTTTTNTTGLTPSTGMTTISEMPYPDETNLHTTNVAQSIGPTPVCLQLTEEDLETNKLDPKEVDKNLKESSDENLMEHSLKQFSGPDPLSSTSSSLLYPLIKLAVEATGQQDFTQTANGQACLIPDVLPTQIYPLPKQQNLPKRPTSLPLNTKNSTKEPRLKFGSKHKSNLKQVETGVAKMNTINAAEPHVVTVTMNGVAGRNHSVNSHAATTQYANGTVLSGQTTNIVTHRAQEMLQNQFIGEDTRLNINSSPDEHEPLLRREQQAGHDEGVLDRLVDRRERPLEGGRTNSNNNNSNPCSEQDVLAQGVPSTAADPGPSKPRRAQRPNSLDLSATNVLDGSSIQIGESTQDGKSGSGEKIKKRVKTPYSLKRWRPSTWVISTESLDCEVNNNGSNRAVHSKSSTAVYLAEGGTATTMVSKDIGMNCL
Sequence of CDK4 CCND3 (human) (P11802 whole entry, looked up): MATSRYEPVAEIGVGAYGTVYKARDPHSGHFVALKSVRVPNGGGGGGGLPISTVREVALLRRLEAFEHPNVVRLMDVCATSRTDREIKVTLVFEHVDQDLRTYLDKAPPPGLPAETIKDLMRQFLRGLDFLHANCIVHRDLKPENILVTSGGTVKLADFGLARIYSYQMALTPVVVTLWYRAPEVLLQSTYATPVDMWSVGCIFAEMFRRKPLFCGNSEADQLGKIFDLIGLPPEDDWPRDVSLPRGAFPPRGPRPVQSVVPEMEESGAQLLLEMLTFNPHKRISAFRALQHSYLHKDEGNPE
Sequence of CDK4 CCND3 (human) (P30281 whole entry, looked up): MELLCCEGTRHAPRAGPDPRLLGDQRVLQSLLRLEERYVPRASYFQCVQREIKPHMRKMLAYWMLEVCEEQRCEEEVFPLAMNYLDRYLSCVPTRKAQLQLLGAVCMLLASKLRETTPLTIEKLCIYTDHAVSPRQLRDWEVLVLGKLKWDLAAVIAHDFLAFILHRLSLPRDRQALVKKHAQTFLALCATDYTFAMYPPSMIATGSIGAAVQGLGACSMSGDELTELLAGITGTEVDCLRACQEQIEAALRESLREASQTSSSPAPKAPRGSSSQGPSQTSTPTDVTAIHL
Sequence of PAK3 (human) (O75914 whole entry, looked up): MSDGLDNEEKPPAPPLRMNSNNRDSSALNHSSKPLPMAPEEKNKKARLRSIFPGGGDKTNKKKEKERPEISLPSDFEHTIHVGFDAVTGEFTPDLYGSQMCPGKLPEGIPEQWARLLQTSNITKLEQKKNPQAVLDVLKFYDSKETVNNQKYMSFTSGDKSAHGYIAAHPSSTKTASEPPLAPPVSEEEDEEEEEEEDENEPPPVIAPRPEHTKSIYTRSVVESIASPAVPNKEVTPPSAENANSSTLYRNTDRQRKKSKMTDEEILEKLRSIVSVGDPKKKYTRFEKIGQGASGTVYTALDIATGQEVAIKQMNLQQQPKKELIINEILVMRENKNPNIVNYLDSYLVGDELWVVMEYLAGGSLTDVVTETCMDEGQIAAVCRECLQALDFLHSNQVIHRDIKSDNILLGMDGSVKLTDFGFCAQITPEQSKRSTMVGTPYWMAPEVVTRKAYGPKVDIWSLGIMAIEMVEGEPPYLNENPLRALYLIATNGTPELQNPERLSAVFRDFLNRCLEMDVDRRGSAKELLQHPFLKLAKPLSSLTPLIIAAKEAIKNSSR

CC(C)n1nc(-c2cc3cc(O)ccc3[nH]2)c2c(N)ncnc21
kinase still bound, per cent of control (ACVR1B (human)): 11% | kinase still bound, per cent of control (ADCK4 (human)): 13% | kinase still bound, per cent of control (AURKB (human)): 85% | kinase still bound, per cent of control (BMPR2 (human)): 0.1% | per cent of control (CDK4 CCND3 (human)): 57% | per cent of control (CDKL2 (human)): 75% | kinase still bound, per cent of control (CLK3 (human)): 66% | kinase still bound, per cent of control (CSF1R (human)): 33% | kinase still bound, per cent of control (DCLK1 (human)): 70% | kinase still bound, per cent of control (EPHB3 (human)): 81% | kinase still bound, per cent of control (FGFR2 (human)): 5.8% | kinase still bound, per cent of control (FGFR4 (human)): 12% | kinase still bound, per cent of control (IKBKB (human)): 84% | kinase still bound, per cent of control (MAP3K13 (human)): 100% | kinase still bound, per cent of control (MAP3K3 (human)): 3.2% | kinase still bound, per cent of control (MAPK6 (human)): 52% | kinase still bound, per cent of control (MAPK7 (human)): 100% | kinase still bound, per cent of control (MERTK (human)): 61% | kinase still bound, per cent of control [1]: 100% | kinase still bound, per cent of control [2]: 88% | kinase still bound, per cent of control (MST1R (human)): 89% | kinase still bound, per cent of control (NIM1 (human)): 88% | kinase still bound, per cent of control (NUAK2 (human)): 9.2% | kinase still bound, per cent of control (PAK3 (human)): 59% | kinase still bound, per cent of control (PAK6 (human)): 23% | kinase still bound, per cent of control (PAK7 (human)): 8.6% | kinase still bound, per cent of control (PRKAA1 (human)): 43% | kinase still bound, per cent of control (PTK2 (human)): 100% | kinase still bound, per cent of control (PTK2B (human)): 100% | kinase still bound, per cent of control (PTK6 (human)): 32% | kinase still bound, per cent of control (RPS6KA6 KD2 (human)): 47% | kinase still bound, per cent of control (STK36 (human)): 100% | kinase still bound, per cent of control (TEK (human)): 21% | kinase still bound, per cent of control (TIE1 (human)): 49% | kinase still bound, per cent of control (TSSK1B (human)): 83% | kinase still bound, per cent of control (TXK (human)): 3%

COC(=O)Nc1ccc(-c2nc(N3CCOCC3)c3cnn(C4CCN(C(=O)OC)CC4)c3n2)cc1
kinase still bound, per cent of control (ACVR1B (human)): 100% | kinase still bound, per cent of control (ADCK4 (human)): 73% | kinase still bound, per cent of control (AURKB (human)): 100% | kinase still bound, per cent of control (BMPR2 (human)): 92% | per cent of control (CDK4 CCND3 (human)): 100% | per cent of control (CDKL2 (human)): 94% | kinase still bound, per cent of control (CLK3 (human)): 100% | kinase still bound, per cent of control (CSF1R (human)): 90% | kinase still bound, per cent of control (CSNK1A1L (human)): 91% | kinase still bound, per cent of control (CSNK1G3 (human)): 100% | kinase still bound, per cent of control (DCLK1 (human)): 93% | kinase still bound, per cent of control [3]: 100% | kinase still bound, per cent of control (EPHB3 (human)): 74% | kinase still bound, per cent of control (EPHB4 (human)): 94% | kinase still bound, per cent of control (FGFR2 (human)): 100% | kinase still bound, per cent of control (FGFR4 (human)): 100% | kinase still bound, per cent of control (IKBKB (human)): 74% | kinase still bound, per cent of control (MAP3K13 (human)): 100% | kinase still bound, per cent of control (MAP3K3 (human)): 81% | kinase still bound, per cent of control (MAPK6 (human)): 100% | kinase still bound, per cent of control (MAPK7 (human)): 100% | kinase still bound, per cent of control (MERTK (human)): 100% | kinase still bound, per cent of control (MST1R (human)): 82% | kinase still bound, per cent of control (NIM1 (human)): 100% | kinase still bound, per cent of control (NUAK2 (human)): 84% | kinase still bound, per cent of control (PAK3 (human)): 83% | kinase still bound, per cent of control (PAK6 (human)): 100% | kinase still bound, per cent of control (PAK7 (human)): 80% | kinase still bound, per cent of control [4]: 5.2% | kinase still bound, per cent of control (PRKAA1 (human)): 100% | kinase still bound, per cent of control (PTK2 (human)): 94% | kinase still bound, per cent of control (PTK2B (human)): 92% | kinase still bound, per cent of control (PTK6 (human)): 88% | kinase still bound, per cent of control (RPS6KA6 KD2 (human)): 96% | kinase still bound, per cent of control (STK36 (human)): 91% | kinase still bound, per cent of control (TEK (human)): 100% | kinase still bound, per cent of control (TIE1 (human)): 99% | kinase still bound, per cent of control (TSSK1B (human)): 100% | kinase still bound, per cent of control (TXK (human)): 92%

CCC(=O)N1CCN(c2ccc(-n3c(=O)ccc4cnc5ccc(-c6cnc7ccccc7c6)cc5c43)cc2C(F)(F)F)CC1
kinase still bound, per cent of control (ACVR1B (human)): 45% | kinase still bound, per cent of control (ADCK4 (human)): 15% | kinase still bound, per cent of control (AURKB (human)): 82% | kinase still bound, per cent of control (BMPR2 (human)): 85% | per cent of control (CDK4 CCND3 (human)): 87% | per cent of control (CDKL2 (human)): 58% | kinase still bound, per cent of control (CLK3 (human)): 43% | kinase still bound, per cent of control (CSF1R (human)): 24% | kinase still bound, per cent of control (CSNK1A1L (human)): 81% | kinase still bound, per cent of control (CSNK1G3 (human)): 100% | kinase still bound, per cent of control (DCLK1 (human)): 100% | kinase still bound, per cent of control [3]: 84% | kinase still bound, per cent of control (EPHB3 (human)): 85% | kinase still bound, per cent of control (EPHB4 (human)): 85% | kinase still bound, per cent of control (FGFR2 (human)): 55% | kinase still bound, per cent of control (FGFR4 (human)): 21% | kinase still bound, per cent of control (IKBKB (human)): 61% | kinase still bound, per cent of control (MAP3K13 (human)): 100% | kinase still bound, per cent of control (MAP3K3 (human)): 75% | kinase still bound, per cent of control (MAPK6 (human)): 1.8% | kinase still bound, per cent of control (MAPK7 (human)): 100% | kinase still bound, per cent of control (MERTK (human)): 53% | kinase still bound, per cent of control [1]: 79% | kinase still bound, per cent of control [2]: 100% | kinase still bound, per cent of control (MST1R (human)): 55% | kinase still bound, per cent of control (NIM1 (human)): 84% | kinase still bound, per cent of control (NUAK2 (human)): 100% | kinase still bound, per cent of control (PAK3 (human)): 100% | kinase still bound, per cent of control (PAK6 (human)): 77% | kinase still bound, per cent of control (PAK7 (human)): 87% | kinase still bound, per cent of control [4]: 1% | kinase still bound, per cent of control (PRKAA1 (human)): 91% | kinase still bound, per cent of control (PTK2 (human)): 14% | kinase still bound, per cent of control (PTK2B (human)): 100% | kinase still bound, per cent of control (PTK6 (human)): 51% | kinase still bound, per cent of control (RPS6KA6 KD2 (human)): 86% | kinase still bound, per cent of control (STK36 (human)): 17% | kinase still bound, per cent of control (TEK (human)): 19% | kinase still bound, per cent of control (TIE1 (human)): 100% | kinase still bound, per cent of control (TSSK1B (human)): 100% | kinase still bound, per cent of control (TXK (human)): 54%

Source: the kinase profiling compilation of Christmann-Franck et al. (2016)
